Results on 1 compound are retold here after patent publication US8409560B2, “Solid dispersion formulations and methods of use thereof” (Zalicus Pharmaceuticals Ltd., priority 2011, dated 2013).

The nature of data set [1]: pKa of compound 1 (previously determined). It is filed as physicochemical. An excerpt: (§1) Compound 1 has the following previously determined characteristics: […]
The nature of data set [2]: log P of compound 1 (previously determined). The class given is physicochemical.
Source text: as §1

A short description of data set [3]: Adverse effects at doses of up to 1,600 mg. It is filed as in vivo. From the text: Yet, compound 1 is also known to have decreased oral bioavailability in the fasted state, as compared to the fed state. Accordingly, the invention provides formulations to increase the oral bioavailability or to reduce patient-to-patient variability in pharmacokinetic behavior of compound 1, compound 2, or a salt thereof. Generally, amorphous forms of a drug are more readily absorbed within the gastric and intestinal system and, thus, have increased bioavailability, as compared to crystalline forms of the drug. These formulations include use of a solid dispersion system to provide a matrix polymer capable of maintaining therapeutically effective amounts of compound 1, compound 2, or a salt thereof, in an amorphous form.

A short description of data set [4]: Modulated differential scanning calorimetry (MDSC), glass transition temperature Tg. To be noted: compound 1 alone. It is filed as physicochemical. The procedure: FIG. 6 is a graph showing modulated differential scanning calorimetry measurements at ambient relative humidity for solid dispersion formulations having 20% (w/w) loading of compound 1. Glass transition temperature Tg is shown for formulations of carboxymethylethyl cellulose (CMEC), hydroxypropylmethyl cellulose acetate succinate M grade (HPMCAS-M), cellulose acetate phthalate (CAP), and polyvinyl acetate phthalate (PVAP).
Various solid dispersion formulations were tested using modulated differential scanning calorimetry (MDSC). MDSC measurements provide glass transition temperature Tg values, which can be used to understand the molecular mobility of a drug within the dispersion. […] Data for Eudragit® L 100 are not shown, but Tg is likely greater than 150° C. due to polymer degradation above this temperature. All recorded Tg values were at least twice as high as compound 1 alone (Tg=41.6° C.). Lower Tg values could indicate potential stability issues over long periods of time or at an increased temperature or pressure. Table 3 provides Tg values for CAP (formulation 1), HPMCAS-M (formulation 2), and PVAP.
(Differential scanning calorimetry records heat flow against a reference as temperature is scanned.)

Data set [5] can be described thus: Solubility of compound 1 (previously determined). The class given is physicochemical.
Source text: as §1

Data set [6] can be described thus: Fed-fasted pharmacokinetics and relative oral bioavailability of compound 1 HCl salt, micronized formulation (previously determined). To be noted: human, in vivo. From the text:
The fed-fasted pharmacokinetic data were collected using a “normal fat” meal consisting of toast with 1 pat of butter, a banana, 2% milk, apple juice, and Honey Nut Cheerios®, where the meal has about 501 calories with 99 calories from fat, 346 calories from carbohydrates, and 56 calories from protein; and using a “high fat” meal consisting of 2 eggs fried in butter, 2 strips of bacon, 2 slices of toast with butter, 4 ounces of hash brown potatoes and 8 ounces of whole milk, where the meal has about 1,000 calories with 500-600 calories from fat, 250 calories from carbohydrates, and 150 calories from protein.
The relative oral bioavailability of compound 1 (HCl salt) has been previously determined in various fed and fasted states in a micronized formulation. This micronized formulation included the following for a 100 mg dose in a #1 HPMC (white opaque) capsule: compound 1 HCl micronized (100.00 mg), Lactose Fast Flo® Fast Flo® composed of a spray-dried mixture of crystalline and amorphous lactose monohydrate (184.80 mg); sodium starch glycolate (19.20 mg); polysorbate 80 (14.40 mg); purified water (used as the granulating fluid and was removed during processing) (QS); and magnesium stearate (1.60 mg), where the resultant fill weight was 320.00 mg. […]

In brackets after ≈: the same amount, converted by molar mass. Read-outs that look alike come from different tables or passages of the source.

Broadly, the pKa is the pH at which an ionisable group is half protonated. Lower therefore signals a group that gives up its proton readily. What is called logP is a log measure of how a compound divides between an organic and an aqueous phase. A higher logP goes with higher lipophilicity. Broadly, the solubility is how much of the substance goes into solution per volume. A word on the Tmax: it is the time from dosing to the highest level. In turn, `O=C(CC(c1ccccc1)c1ccccc1)N1CCN(C(c2ccccc2)c2ccccc2)CC1` [Compound 1, 1-(4-benzhydrylpiperazin-1-yl)-3,3-diphenylpropan-1-one] yielded a pKa in data set [1] of 5.4. This compound displayed a log partition coefficient (logP) in data set [2] of 2.6. Also, the adverse effects result in data set [3] was “no adverse effects”. The compound further came in with a Tg in data set [4] of 41.6 °C. Also, in data set [5], the “solubility in propylene glycol, ethanol, and tetrahydrofuran (in words)” value is given as “soluble”. The solubility in data set [5] (acetone, organic solvent or mixture, read-out: solubility in acetone) is no more than 50000 µg/mL; in data set [5] (pH 6.5, pH of 6.5 in FaSSIF, read-out: solubility) it was 1.5 µg/mL (≈ 3.26 µM); in data set [5] (water, pH 1, simulated gastric fluid, pH of 1.0, read-out: solubility in water) it was 55 µg/mL (≈ 119 µM); in data set [5] (water, pH 6.5, aqueous buffer, pH of 6.5, read-out: solubility in water), 0.03 µg/mL (≈ 0.0651 µM); in data set [5] (water, pH 6.8, aqueous buffer, pH of 6.8, read-out: solubility in water), 0.2 to 2 µg/mL (≈ 0.434 to 4.34 µM). Moreover, the “solubility in water (in words)” value in data set [5] (water) is on record as “slightly soluble”. Moreover, the Tmax in data set [6] is less than 2 h.
